Where no end group is shown, it is not given here.

The subject of data set [1] is PC-3M cells. The data set is described as follows: MTT assay, cell proliferation. Format: cell-based. On the procedure:
MTT assays were used to measure effect of the tested drugs on tumor growth. MTT assays were performed on a control group, a calcitonin (CT) stimulated group, a group treated with compound 1 (drug treated), and a group that was both drug treated and CT stimulated. Conditions for the MTT assay were as follows: Exponentially growing cells were plated in a 96-well plate at a density of 8×10^3 cells per well, and cultured for 24 hours in complete growth medium (RPMI 1640 containing 10% fetal bovine, 10 mM HEPES, 4 mM L-glutamine, 100 IU/ml penicillin G and 100 μg/ml streptomycin). The complete growth medium was then replaced with 100 μl of basal incubation medium (RPMI 1640 containing 0.1% BSA, 10 mM HEPES, 4 mM L-glutamine, 100 IU/ml penicillin G and 100 μg/ml streptomycin). The cells were then treated with test compounds (dissolved in basal incubation medium), and the culture was continued at 37° C. under 5% CO2 for 24 hours. The cells were then treated with MTT solution at 37° C. for 4 h, and the color reaction was stopped with the stop solution (10% sodium dodecyl sulfate solution in 0.01 M hydrochloric acid) (100 μl/well). The incubation at 37° C. was continued until the formazan product was completely dissolved. Absorbance of the samples was determined at 595 nm with an ELISA plate reader (Bio-Rad, Hercules, Calif.).

Data set [2] deals with PC-3M cells. The data set is described as follows: Invasion assay (Matrigel Boyden invasion chambers). Format: cell-based. Particulars: 24 hours, FIG. 2. On the procedure: Invasion assays were used to identify compounds with antimetastatic activity. Invasion assays were performed on a control group, a calcitonin (CT) stimulated group, a drug treated group and a group that was both drug treated and CT stimulated. The assay employed two-compartmented Boyden invasion chambers sold under the trademark MATRIGEL. The assay conditions were as follows: exponentially growing PC cells were serum-starved for 24 hours with basal incubation medium. Serum-starved cells were then seeded at a density of 25×10^3 cells/well in the upper insert of the invasion chamber. The lower chamber received the chemoattractant medium, which consisted of 90% basal RPMI medium and 10% conditioned medium from the cultures of PC-3M cells expressing constitutively active Gsa protein as described in Chien, J., Wong, E., Nikes, E., Noble, M. J., Pantazis, C. G., and Shah, G. V. (1999) Oncogene 18(22), 3376-3382 which is incorporated herein by reference. The incubations were carried out for 24 hours, after which the basement matrix protein or Matrigel™ (along with non-invading cells) was scraped off with cottonswabs, and the outer side of the insert was fixed and stained using hemaoxylin staining sold under the trademark Diff Quick (Dade Behring Diagnostics, Aguada, PR). The number of cells migrated on the outer bottom side of the insert were counted under the microscope in six or more randomly selected fields (magnification: 100×). The final results were expressed as mean+/−SEM number of invaded cells per 100× field. Each experiment was done in triplicates, and the experiment was repeated twice. […] To correct this, the growth rate was determined for PC-3M cells under identical culture conditions. 25×10^3 cells were plated at hourly intervals in six-well dishes and cultured for 1-24 hours. Mean percent increase in the cell number was determined by counting the net increase in the number of cells. […] This correction was applied to the results of invasion assays.

For data set [3], the system named is PC-3M prostate cancer cell line. The data set is described as follows: In vitro metastasis assay (spheroid disaggregation, radial migration). Format: cell-based. Here is the method: In vitro metastasis assays were conducted to determine the anti-metastatic effect of various compounds. This assay involves preparation of spheroids approximately […] in diameter of cancer cells cultured on an extracellular matrix. In 24 hours, only metastatic cells disaggregate from the spheroid and start radial migration. Thus, lower measurements of radial migration are indicative of greater effectiveness of the drug/compound. Spheroids were prepared from single cell suspension of prostate cell lines as described before in Gondi, C. S., Lakka, S. S., Yanamandra, N., Olivero, W. C., Dinh, D. H., Gujrati, M., Tung, C. H., Weissleder, R., and Rao, J. S. (2004) Cancer Res 64(12), 4069-4077 and in Thomas, S., Chiriva-Internati, M., and Shah, G. V. (2007) Clin Exp Metastasis 24(5), 363-377 both of which are incorporated herein by reference. 5×10^4/ml cells in RPMI 1640 serum-free medium were placed on 96-well low-attachment tissue culture plates. The plates were rocked on gyrotory shaker in a CO2 incubator at 37° C. for 2 days, at the end of which the spheroids measuring 150-300 μm in diameter (˜4×10^4 cells/spheroid) were formed. A single spheroid was then placed in the center of each well of extracellular-matrix-coated 24-well microplate in […] of serum-free medium. From previous studies, it was determined that 1 hour was an appropriate time for spheroids to begin adhering to an extracellular matrix. Thus, t=0 was set as 1 hour from initial plating, so that if the plate was not disturbed, the spheroids would not move from their location at the time of plating. Spheroids were digitally photographed at t=0, cultured at 37° C. for 48 h and then re-photographed. […] The diameter of the area covered with cells migrated from the spheroids was measured in a microscope calibrated with a stage and ocular micrometer. The radial distance of migration was calculated after subtraction of the mean initial spheroidal diameter at t=0.

Data set [4] relates to PC-3M cells over expressing CT. The data set is described as follows: Xenograft testing, orthotopic implant in athymic nude mice. The class given is in vivo. Conditions: compound 1 200 μg/day, compound 2 40 μg/day; for average life-expectancy: intraperitoneally every other day, untreated 54 days, ± SEM; for tumor growth in secondary organs (metastases): intraperitoneally, FIG. 5. An excerpt:
In vivo xenograft testing was done on athymic nude mice to measure the anti-cancer effect of various compounds. PC-3M prostate cells were used that contain a red fluorescence protein from gene transfer to facilitate tracking of cancer cells. The red fluorescence protein used is described in Yang, M., Baranov, E., Wang, J. W., Jiang, P., Wang, X., Sun, F. X., Bouvet, M., Moossa, A. R., Penman, S., and Hoffman, R. M. (2002) Proc Natl Acad Sci U S A 99(6), 3824-3829, which is incorporated herein by reference. 1×10^5 PC-3M cells over expressing CT were implanted in 30 day old mice orthotopically, that is the prostate cancer cells were implanted into the prostate of the mice. The cells were then allowed to grow in their native environment allowing for metastasis into other organs such as the lymph nodes, bones and lungs. The mice, other than the control mice were injected intraperitoneally every other day. Dosing rates were 200 μg/day or 5 μg/g body weight/day-intrapertonieally for compound 1 and 40 μg/day or 1 μg/g body weight/day-intraperitoneally for compound 2. Tumor growth was measured by fluorescence imaging and the mice were sacrificed upon signs of morbidity such as immobility and high tumor burden.

The next data set deals with prostate tumors. The data set is described as follows: Testing of transgenic LPB-Tag mice that spontaneously form prostate tumors. Particulars: 80 μg/week intraperitoneally. The class given is in vivo. The source says: In vivo testing was done on transgenic mice that spontaneously form prostate tumors to measure the anti-cancer effect of compound 2. The mice used were LPB-Tag mice of the type described in Kasper, S., and Smith, J. A., Jr. (2004) J Urol 172(1), 12-19 which is incorporated herein by reference. The mice were originally developed by Dr. Robert Matusik of Vanderbilt University. LPB-Tag mice are generated by the targeted expression of SV40 large T-antigen (Tag) in the prostate using androgen-regulated, prostate-specific large probasin (LPB) gene promoter. The mice develop PIN lesions as well as extensive prostate adenocarcinomas in adulthood. The mice had their p53 gene knocked out and T-antigen selectively targeted to the prostate. Therefore, the mice begin to develop prostate tumors spontaneously as they approached the age of 50 days (adulthood), the tumors gradually grew and became very large at the age of 90 days. Mice were sacrificed around day 90 and their prostates and other organs were harvested for studying tumor characteristics and histology. Compound 2 was delivered at a dosing of 80 μg/week or 2 μg/g body weight/week-intraperitoneally. […] These tests indicate that compounds of this invention may be used as a chemopreventive for high risk patients.

For data set [5], the system named is PC-3M cells. The data set is described as follows: Growth rate of PC-3M cells by cell counting (correction for invasion assay). Format: cell-based. Particulars: vehicle control=1; cultured 1-24 hours. Here is the method: Invasion assays were used to identify compounds with antimetastatic activity. Invasion assays were performed on a control group, a calcitonin (CT) stimulated group, a drug treated group and a group that was both drug treated and CT stimulated. The assay employed two-compartmented Boyden invasion chambers sold under the trademark MATRIGEL. The assay conditions were as follows: exponentially growing PC cells were serum-starved for 24 hours with basal incubation medium. Serum-starved cells were then seeded at a density of 25×10^3 cells/well in the upper insert of the invasion chamber. The lower chamber received the chemoattractant medium, which consisted of 90% basal RPMI medium and 10% conditioned medium from the cultures of PC-3M cells expressing constitutively active Gsa protein as described in Chien, J., Wong, E., Nikes, E., Noble, M. J., Pantazis, C. […] The number of cells migrated on the outer bottom side of the insert were counted under the microscope in six or more randomly selected fields (magnification: 100×). The final results were expressed as mean+/−SEM number of invaded cells per 100× field. […] To correct this, the growth rate was determined for PC-3M cells under identical culture conditions. […] Mean percent increase in the cell number was determined by counting the net increase in the number of cells. […]

Regarding `O=C1NC(=O)/C(=C/c2ccc(O)cc2)N1` [compound 1, (Z)-5-(4-hydroxybenzylidene)imidazolidine-2,4-dione], the “rate of CT stimulated cell proliferation” value with PC-3M cells [1] (50 μM, 24 hours, CT stimulated, FIG. 1) is on record as “moderate but significant decline”. The “rate of baseline cell proliferation” value with PC-3M cells [1] (50 μM, 24 hours, baseline (no CT), FIG. 1) is listed as “moderate but significant decline”. Also, in the data set with PC-3M cells [1] (PC-3M cells), the “dosage rate until which no cytotoxic effect on PC-3M cells” value was at least 500 µM. In addition, the baseline invasion result with PC-3M cells [2] (50 μM, no CT) is recorded as “did not affect baseline invasion”. Also, the CT-stimulated invasion entry in the data set on PC-3M cells [2] (50 μM, CT 50 nM) is recorded as “almost abolished CT-stimulated invasion”. In data set [3], the “dose until which no cytotoxicity” value was at least 500 µM. The “disaggregation and migration of cells from spheroids” value in data set [3] (50 μM) is reported as “did not disaggregate or migrate”. The compound further gave an effective dose range in data set [3] (multiple doses, distances migrated by the cells) of 25 to 200 µM. Besides, in data set [4], the average life-expectancy is reported as 61.44 days and the “tumor growth in secondary organs (metastases)” value is on record as “completely prevented tumor growth in most secondary organs”.
Consider `CCSc1ccc(/C=C2\NC(=O)NC2=O)cc1` [compound 2, (Z)-5-(4-S-ethylbenzylidene)imidazolidine-2,4-dione], for which, in data set [4], the average life-expectancy was found to be 66 ± 1 days and the “tumor growth in secondary organs (metastases)” value is “completely prevented tumor growth in most secondary organs”. For the same compound, the increased survival entry in the data set with prostate tumors is recorded as “at least 1 week”. In addition, the “decrease of tumor size measured at necropsy compared to diluents treated mice” value with prostate tumors (sacrificed around day 90) was 62%.
“calcitonin (CGNLSTCMLGTYTQDFNKFHTFPQTAIGVGAP; ends and bridges not checked; cysteine pairing not given here; UniProt P01258 85-116, looked up) [CT, calcitonin (CT), used to stimulate proliferation, invasion and metastasis of PC-3M cells, reference compound]”: the “invasion of PC-3M cells” value in the data set with PC-3M cells [2] (CT 50 nM) is listed as “significantly increased”. For the same compound, in the data set on PC-3M cells [5], the “relative CT-induced increase in cell number, pooled results of all time points” value is reported as 1.19.
